Experimental data reported in article PMC3600304, “Inhibitors of Fatty Acid Synthesis Induce PPARα-Regulated Fatty Acid β-Oxidative Genes: Synergistic Roles of L-FABP and Glucose” (PPAR Research, 2013).

Tests used:
L-FABP = target: T1, L-FABP (Rattus norvegicus, UniProt P02692); assay: Displacement of L-FABP-bound NBD-stearic acid; assay type: binding
T1 construct: made in house
T1 sequence (P02692 1-127): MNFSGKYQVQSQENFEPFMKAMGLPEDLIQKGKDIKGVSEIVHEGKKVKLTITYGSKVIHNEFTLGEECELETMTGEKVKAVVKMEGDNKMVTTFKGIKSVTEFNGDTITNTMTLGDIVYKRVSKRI
Experimental: (§1) Advantage was taken of the fact that NBD-stearic acid bound to L-FABP (two ligand binding sites) as well as SCP-2 (single-ligand binding site) to design a NBD-stearic acid displacement assay that allowed determination of which fatty acid synthesis inhibitors or their CoA thioesters bound to these LCFA/LCFA-CoA binding proteins. Displacement of NBD-stearate from L-FABP and SCP-2 was determined by incubating L-FABP or SCP-2 (25 nM in 10 mM phosphate buffer) with NBD stearate (40 nM) for 12 min to obtain maximal fluorescence, followed by titration with increasing amount of ligand. From the displacement curve, the K i value was calculated as described. All experiments were carried out with a thermostated cuvette to maintain temperature at 24°C using a circulating water bath. ANS displacement assay was performed as described.

SCP-2 = target: T2, SCP-2 (Homo sapiens, UniProt P22307); assay: Displacement of SCP-2-bound NBD-stearic acid; assay type: binding
T2 construct: made in house
T2 sequence (P22307 1-143 isoform P22307-2): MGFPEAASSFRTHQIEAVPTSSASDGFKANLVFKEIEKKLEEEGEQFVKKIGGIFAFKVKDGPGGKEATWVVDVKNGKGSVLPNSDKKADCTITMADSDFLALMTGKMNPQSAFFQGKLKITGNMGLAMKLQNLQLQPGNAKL
Experimental: as §1

recombinant rat L-FABP = target: T3, recombinant rat L-FABP (Rattus norvegicus, UniProt P02692); assay: L-FABP secondary structure by circular dichroism (CD); conditions: L-FABP 1 μM, ligand 10 μM
T3 construct: made in house
T3 sequence (P02692 1-127): T1 sequence (P02692 1-127)
Experimental: Circular dichroism (CD) spectra were obtained utilizing a JASCO J-815 CD spectrometer (JASCO Analytical Instruments, Easton, MD, USA). Each sample for CD analysis contained recombinant rat L-FABP (1 μM) in 10 mM potassium phosphate (pH 7.4) with or without ligand (10 μM). Samples were scanned from 190 to 250 nm using the following conditions: step resolution, 1 nm; bandwidth, 2 nm; sensitivity, 10 mdeg; scan rate, 50 nm/min; and time constant, 1 s. For each measurement, 10 scans were averaged, background-subtracted, smoothed using the Means-Movement smoothing method (convolution width, 5) and converted to mean residue molar ellipticity utilizing the Spectra Manager Version 2 software as supplied by the instrument manufacturer (Spectra Analysis Version 2.03.04, Build 5). The percentage composition of α-helices (regular, distorted, total), β-sheets (regular, distorted, total), turns, and unordered structures was determined utilizing the CDPro program as supplied by the instrument manufacturer using the SDP48 reference set (soluble + denatured protein). This program allows the percentage calculation of various secondary structures by three different methods: CDSSTR, CONTIN, and SELCON3. Statistical analysis was performed by one-way analysis of variance (ANOVA) combined with the Newman-Keuls multiple-comparisons posttest (GraphPad Prism Version 3.03, San Diego, CA, USA).

[1] = test system: PPARα transcription of CPT1A, CPT2, ACOX1; assay: rtPCR of CPT1A, CPT2, ACOX1 mRNA in wild-type mouse primary hepatocytes; assay type: cell-based; conditions: inhibitor 10 μg/mL, 5 hr
Experimental: Mouse hepatocytes were isolated from livers of male wild-type and L-FABP null mice as described. To study the effect of TOFA and C75 at different glucose levels, mouse hepatocytes were cultured overnight with DMEM/F-12 supplemented with 5% FBS. Cells were incubated with glucose-free DMEM supplemented with fatty acid-free BSA (40 μM), 100 nM insulin, 10 nM dexamethasone, and without (no inhibitor) or with the de novo fatty acid synthesis inhibitors C75 or TOFA (10 μg/mL) for 30 min (1 mL/well). Cells were incubated further for 5 hr with 6 or 20 mM glucose without or with the inhibitors.
Transcription of key enzymes in mitochondrial (CPT1A and CPT2) and peroxisomal (ACOX1) β-oxidation of long chain fatty acid (LCFA) was determined by rtPCR similarly as described. Briefly, the RNeasy mini kit from Qiagen Sciences (MD, USA) was used as per the manufacturer's instructions to isolate total RNA, which was then quantified spectrophotometrically. Quantitative real-time PCR was performed with an ABI PRISM 7000 Sequence Detection System (SDS) from Applied Biosystems (Foster City, CA, USA) to determine relative mRNA expression for CPT1A, CPT2, and ACOX1. The thermal protocol was as follows: 48°C for 30 min, 95°C for 10 min before the first cycle, 95°C for 15 sec, and 60°C for 60 sec, repeated 40 times. TaqMan One-Step Master Mix and Gene Expression Assays for mouse CPT1A (Mm 00550438_m1), CPT2 (Mm 00487202_m1), and ACOX1 (Mm 00443579_m1) were purchased from Applied Biosystems (Life Technologies, Carlsbad, CA, USA). Triplicates of each sample were analyzed with ABI PRISM 7000 SDS software (Applied Biosystems) to determine ΔCt relative to a positive control (18S housekeeping gene). The fold change in the abundance of CPT1A, CPT2, and ACOX1 mRNAs was determined in primary mouse hepatocytes treated with albumin (40 μM) in the absence and presence of lipid synthesis inhibitors (C75, TOFA, 10 μg/mL) in glucose-free DMEM medium supplemented with 100 nM insulin, 10 nM dexamethasone, and either 6 or 20 mM glucose. The comparative 2^−ΔΔCt calculation method was used as described in User Bulletin 2, ABI Prism 7000 SDS (Applied Biosystems), and earlier. Finally, protein levels of liver fatty acid binding protein (L-FABP), sterol carrier protein-2 (SCP-2), acyl CoA binding protein (ACBP), peroxisome proliferator activated receptor (PPARα), liver X receptor-α (LXRα), carbohydrate response element binding protein (ChREBP), and sterol response element binding protein (SREBP) were determined by western blotting as described.

CPT1A = test system: CPT1A; design: method as in PMID 39932, PMID 4051503, PMID 12060712, PMID 502765; conditions: rat hepatocytes, media with high glucose (11 mM); cited from earlier work

| Displacement of NBD-stearic acid bound to L-FABP (in words) (L-FABP) | Displacement of NBD-stearic acid bound to SCP-2 (in words) (SCP-2) | K i, displacing SCP-2-bound NBD-stearic acid (SCP-2; SCP-2 25 nM, NBD stearate 40 nM, 24°C) | Effect on L-FABP secondary structure (overall) (recombinant rat L-FABP) | Ki (L-FABP; L-FABP 25 nM, NBD stearate 40 nM, 24°C, read-out: K i, displacing L-FABP-bound NBD-stearic acid) | Fluorescence of L-FABP-bound NBD-stearic acid decreasing to (L-FABP; at 650 nM TOFA) | Ki (SCP-2; SCP-2 25 nM, NBD stearate 40 nM, 24°C, read-out: K i, displacing SCP-2-bound NBD-stearic acid) | Effect on proportion of all types of β-sheet of L-FABP (recombinant rat L-FABP) | Effect on proportion of α-helix of L-FABP (recombinant rat L-FABP) | Effect on turn structure of L-FABP (recombinant rat L-FABP) | Effect on unordered structure of L-FABP (recombinant rat L-FABP) | Compound | PPARα transcription of CPT1A, CPT2, ACOX1 (mRNA) ([1]; 6 mM glucose) | PPARα transcription of CPT1A, CPT2, ACOX1 (mRNA) ([1]; 20 mM glucose) | CPT1A activity and fatty acid oxidation (CPT1A) |
| --- | --- | --- | --- | --- | --- | --- | --- | --- | --- | --- | --- | --- | --- | --- |
| weaker | barely detectable | not bound^(a) | did not alter | – | – | – | – | – | – | – | C=C1C(=O)OC(CCCCCCCC)C1C(=O)O (stereo not drawn) [C75, 4-methylene-2-octyl-5-oxotetrahydrofuran-3-carboxylic acid] | neither TOFA nor C75 significantly altered | induced | increased |
| – | – | – | significantly altered | 66 ± 3 nM | 40% | 227 ± 20 nM | increased | did not alter | decreased | did not alter | CCCCCCCCCCCCCCOc1ccc(C(=O)O)o1 [TOFA, 5-tetradecyloxy-2-furancarboxylic acid] | neither TOFA nor C75 significantly altered | induced | increased |
